Data reported in ChEMBL document CHEMBL1144129, “Isolation of xestosterol esters of brominated acetylenic fatty acids from the marine sponge xestospongia testudinaria” (J Nat Prod, 1999).

Target: T1, Adenosine receptor A1 (Rattus norvegicus, UniProt P25099)
T1 sequence (P25099 whole entry): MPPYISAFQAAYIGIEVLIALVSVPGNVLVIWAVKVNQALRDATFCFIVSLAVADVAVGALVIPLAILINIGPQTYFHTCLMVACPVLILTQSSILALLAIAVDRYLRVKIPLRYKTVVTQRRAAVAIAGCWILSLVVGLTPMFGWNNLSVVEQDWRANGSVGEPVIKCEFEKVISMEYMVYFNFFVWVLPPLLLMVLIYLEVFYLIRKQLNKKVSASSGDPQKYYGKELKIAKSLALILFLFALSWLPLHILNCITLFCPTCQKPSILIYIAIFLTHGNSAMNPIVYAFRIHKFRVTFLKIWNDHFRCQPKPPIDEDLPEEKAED
Assay: Displacement of [3H]DPCPX from rat brain adenosine A1 receptor

- IC50: 106 µM
Structure (SMILES): O=C(O)CCCCCC#C/C=C/CCCCC#C/C=C/Br
